Measured values published in publication PMC6691788, “Design and synthesis of phthalazine-based compounds as potent anticancer agents with potential antiangiogenic activity via VEGFR-2 inhibition” (Journal of Enzyme Inhibition and Medicinal Chemistry, 2019).

What was measured:
EKVX = test: NCI 60 cell panel SRB screen; format: cell-based, human; settings: for GI50 / IC (TGI) / LC50: Homo sapiens, 5 log dose; for LC50: 48 h; for percent cell growth promotion: single dose 10 μM
NCI-H322M = test: NCI 60 cell panel SRB screen; format: cell-based; settings: Homo sapiens; for GI50 / IC (TGI) / CC50: 5 log dose; for CC50: 48 h, read-out: LC50 (the source's name); for activity at 10 µM: single dose 10 μM, read-out: percent cell growth promotion
COLO 205 = test: NCI 60 cell panel SRB screen; format: cell-based; settings: Homo sapiens; for GI50 / IC (TGI) / CC50: COLO 205, 5 log dose; for CC50: 48 h, read-out: LC50 (the source's name); for activity at 10 µM: COLO 205, single dose 10 μM, read-out: percent cell growth promotion
HCT-15 = test: NCI 60 cell panel SRB screen; format: cell-based; settings: Homo sapiens; for GI50 / IC (TGI) / CC50: HCT-15, 5 log dose; for CC50: 48 h, read-out: LC50 (the source's name); for activity at 10 µM: HCT-15, single dose 10 μM, read-out: percent cell growth promotion
SF-295 = test: NCI 60 cell panel SRB screen; format: cell-based; settings: Homo sapiens; for GI50 / IC (TGI) / CC50: SF-295, 5 log dose; for CC50: 48 h, read-out: LC50 (the source's name); for activity at 10 µM: SF-295, single dose 10 μM, read-out: percent cell growth promotion
SF-539 = test: NCI 60 cell panel SRB screen; format: cell-based, human; settings: for GI50 / IC (TGI) / CC50: Homo sapiens, SF-539, 5 log dose; for CC50: 48 h, read-out: LC50 (the source's name); for percent cell growth promotion: SF-539, single dose 10 μM
SK-MEL-2 = test: NCI 60 cell panel SRB screen; format: cell-based; settings: for GI50 / IC (TGI) / CC50: Homo sapiens; for IC (TGI): read-out: TGI; for CC50: SK-MEL-2, 5 log dose, 48 h, read-out: LC50 (the source's name); for percent cell growth promotion: SK-MEL-2, single dose 10 μM
UACC-62 = test: NCI 60 cell panel SRB screen; format: cell-based; settings: for GI50 / activity at 10 µM / CC50: Homo sapiens; for GI50: UACC-62; for activity at 10 µM: UACC-62, read-out: percent cell growth promotion; for CC50 / TGI: UACC-62, 5 log dose; for CC50: 48 h, read-out: LC50 (the source's name)
OVCAR-4 = test: NCI 60 cell panel SRB screen; format: cell-based; settings: Homo sapiens; for GI50 / IC (TGI) / CC50: OVCAR-4, 5 log dose; for CC50: 48 h, read-out: LC50 (the source's name); for activity at 10 µM: OVCAR-4, single dose 10 μM, read-out: percent cell growth promotion
786-0 = test: NCI 60 cell panel SRB screen; format: cell-based; settings: Homo sapiens; for GI50 / IC (TGI) / CC50: 786-0, 5 log dose; for CC50: 48 h, read-out: LC50 (the source's name); for activity at 10 µM: 786-0, single dose 10 μM, read-out: percent cell growth promotion
A498 = test: NCI 60 cell panel SRB screen; format: cell-based; settings: Homo sapiens; for GI50 / IC (TGI) / CC50: A498, 5 log dose; for CC50: 48 h, read-out: LC50 (the source's name); for activity at 10 µM: A498, single dose 10 μM, read-out: percent cell growth promotion
UO-31 = test: NCI 60 cell panel SRB screen; format: cell-based; settings: Homo sapiens; for GI50 / IC (TGI) / CC50: UO-31, 5 log dose; for CC50: 48 h, read-out: LC50 (the source's name); for activity at 10 µM: UO-31, single dose 10 μM, read-out: percent cell growth promotion
full NCI 60 cell panel [1] = test: NCI 60 cell panel SRB screen, whole panel; format: cell-based, human; settings: Homo sapiens, 60 cell; for activity at 10 µM: mean over the panel, single dose 10 μM, read-out: Mean percent cell growth promotion; for inhibition at 10 µM: single dose 10 µM, read-out: cell growth inhibition against various cell lines
Source text: Aiming to evaluate the general antitumour activity of the synthesised phthalazines, the structures of the final compounds were submitted to National Cancer Institute “NCI” (www.dtp.nci.nih.gov), Bethesda, Maryland, USA. In vitro NCI anticancer screening involves two-stage process, the first stage started with the evaluation of the selected candidates against the full NCI 60 cell lines panel representing leukaemia, non-small cell lung cancer, melanoma, colon, CNS, breast, ovarian, renal and prostate cancers at a single dose of 10 µM. NCI selection is based on degree of structure variation and application of computer modelling techniques to prioritise compounds based on their ability to add diversity to the NCI small molecule compound collection.
Eight compounds (6b, 6e, 7b, 13a, 13c, 16a, 16d and 17a) were selected by NCI for further 5 log dose screening against full NCI 60 cell panel. All the 60 cell lines, representing nine tumour subpanels (leukaemia, non-small cell lung cancer, colon cancer, CNS cancer, prostate cancer, melanoma, ovarian cancer, renal cancer and breast cancer) which were incubated at five different concentrations (0.01, 0.1, 1, 10 and 100 µM) of each of the test compounds. The outcomes were used to create log concentration vs % growth inhibition curves, then three response parameters (GI50, TGI and LC50) were calculated for each cell line, (Tables S4 and S5 in Supplementary material).
The human tumor cell lines of the cancer-screening panel were grown in RPMI 1640 medium containing 5% fetal bovine serum and […] L-glutamine. For a typical screening experiment, cells are inoculated into 96 well microtiter plates in 100 ml at plating densities ranging from 5000 to 40,000 cells/well depending on the doubling time of individual cell lines. After cell inoculation, the microtiter plates are incubated at 37 °C, 5% CO2, 95% air and 100%
relative humidity for 24 h prior to addition of experimental drugs. After 24 h, two plates of each cell line are fixed in situ with TCA, to represent a measurement of the cell population for each cell line at the time of drug addition (Tz). Experimental drugs are dissolved in dimethyl sulfoxide at 400-fold the desired final maximum test concentration and stored frozen prior to use. At the time of drug addition, an aliquot of frozen concentrate is thawed and diluted to twice the desired final maximum test concentration with complete medium containing […] Gentamicin. Additional four, 10-fold or ½log serial dilutions are made to provide a total of five drug concentrations plus control. Aliquots of […] of these different drug dilutions are added to the appropriate microtiter wells already containing 100 ml of medium, resulting in the required final drug concentrations. Following drug addition, the plates are incubated for an additional 48 h at 37 °C, 5% CO2, 95% air, and 100% relative humidity. For adherent cells, the assay is terminated by the addition of cold TCA. Cells are fixed in situ by the gentle addition of […] of cold 50% (w/v) TCA (final concentration,10% TCA) and incubated for 60 min at 4 °C. The supernatant is discarded, and the plates are washed five times with tap water and air dried. Sulforhodamine B (SRB) solution (100 ml) at 0.4% (w/v) in 1% acetic acid is added to each well, and plates are incubated for 10 min at room temperature. After staining, unbound dye is removed by washing five times with 1% acetic acid and the plates are air dried. Bound stain is subsequently dissolved with 10 μM trizma base, and the absorbance is read on an automated plate reader at a wavelength of 515 nm. For suspension cells, the methodology is the same except that the assay is terminated by fixing settled cells at the bottom of the wells by gently adding […] of 80% TCA (final concentration, 16% TCA). […]

full NCI 60 cell panel [2] = test: NCI 60 cell panel SRB screen, whole panel; format: cell-based, human; settings: Homo sapiens, 60 cell, NCI 5-log dose, full 60 cell panel; read-out: GI50 values, range over the tested cell lines

## O=C(Nc1ccccc1)Nc1ccc(Oc2nnc(Cl)c3ccccc23)cc1 [Compound 13a, 1–(4-(4-Chlorophthalazin-1-yloxy)phenyl)-3-phenylurea]
EKVX
  GI50: 2.31 µM
  IC (TGI): 12.1 µM
  LC50: > 25 µM
  percent cell growth promotion: 29.96%
NCI-H322M
  GI50: 2.19 µM
  IC (TGI): > 25 µM
  CC50: > 25 µM
  activity at 10 µM: 47.3%
COLO 205
  GI50: 5.24 µM
  IC (TGI): > 25 µM
  CC50: > 25 µM
  activity at 10 µM: 35.1%
HCT-15
  GI50: 3.54 µM
  IC (TGI): 12.9 µM
  CC50: > 25 µM
  activity at 10 µM: 36.4%
SF-295
  GI50: 2.07 µM
  IC (TGI): 5.63 µM
  CC50: 13.5 µM
  activity at 10 µM: 31.2%
SF-539
  GI50: 2.81 µM
  IC (TGI): 6.4 µM
  CC50: 14.6 µM
  percent cell growth promotion: -22.02%
SK-MEL-2
  GI50: 3.9 µM
  IC (TGI): 13.2 µM
  CC50: > 25 µM
  percent cell growth promotion: 9.53%
UACC-62
  GI50: 6.84 µM
  activity at 10 µM: 41.3%
  CC50: > 25 µM
  TGI: > 25 µM
OVCAR-4
  GI50: 1.73 µM
  IC (TGI): 12.2 µM
  CC50: > 25 µM
  activity at 10 µM: 0.22%
786-0
  GI50: 3.6 µM
  IC (TGI): 8.18 µM
  CC50: 18.6 µM
  activity at 10 µM: 38.2%
A498
  GI50: 3.45 µM
  IC (TGI): 13.1 µM
  CC50: > 25 µM
  activity at 10 µM: 49.2%
UO-31
  GI50: 3.98 µM
  IC (TGI): 19.6 µM
  CC50: > 25 µM
  activity at 10 µM: 34.9%
Full NCI 60 cell panel [1]
  activity at 10 µM: 24.1%
  inhibition at 10 µM: > 90%
Full NCI 60 cell panel [2]
  GI50: 0.15 to 8.41 µM

## Clc1ccc(Nc2nnc(COc3ccccc3)c3ccccc23)cc1 [Compound 17a, N-(4-Chlorophenyl)-4-(phenoxymethyl)phthalazin-1-amine]
EKVX
  GI50: 0.67 µM
  IC (TGI): 7.32 µM
  LC50: > 25 µM
  percent cell growth promotion: 6.53%
NCI-H322M
  GI50: 1.56 µM
  IC (TGI): 8.2 µM
  CC50: > 25 µM
  activity at 10 µM: 21.1%
COLO 205
  GI50: 0.45 µM
  IC (TGI): 4.38 µM
  CC50: 16.1 µM
  activity at 10 µM: -5.75%
HCT-15
  GI50: 2.05 µM
  IC (TGI): 6.75 µM
  CC50: 19.7 µM
  activity at 10 µM: 4.45%
SF-295
  GI50: 1.65 µM
  IC (TGI): 6.7 µM
  CC50: 20.5 µM
  activity at 10 µM: -1.11%
SF-539
  GI50: 3.12 µM
  IC (TGI): 7.58 µM
  CC50: 18.4 µM
  percent cell growth promotion: 8.42%
SK-MEL-2
  GI50: 0.97 µM
  IC (TGI): 5.13 µM
  CC50: 15.1 µM
  percent cell growth promotion: -26.47%
UACC-62
  GI50: 1.24 µM
  activity at 10 µM: -27.7%
  CC50: 17.5 µM
  TGI: 5.69 µM
OVCAR-4
  GI50: 2.09 µM
  IC (TGI): > 25 µM
  CC50: > 25 µM
  activity at 10 µM: 18.1%
786-0
  GI50: 2.6 µM
  IC (TGI): 8.11 µM
  CC50: > 25 µM
  activity at 10 µM: 5.25%
A498
  GI50: 0.68 µM
  IC (TGI): 3.64 µM
  CC50: 10.6 µM
  activity at 10 µM: -17.3%
UO-31
  GI50: 0.72 µM
  IC (TGI): 5.2 µM
  CC50: 23.9 µM
  activity at 10 µM: -12.3%
Full NCI 60 cell panel [1]
  activity at 10 µM: -4.07%
  inhibition at 10 µM: > 90%
Full NCI 60 cell panel [2]
  GI50: 0.15 to 8.41 µM

## O=C(Nc1ccc(Cl)cc1)Nc1ccc(Nc2nncc3ccccc23)cc1 [Compound 6b, 1–(4-Chlorophenyl)-3–(4-(phthalazin-1-ylamino)phenyl)urea]
EKVX
  GI50: 2.95 µM
  IC (TGI): 25.3 µM
  LC50: > 100 µM
NCI-H322M
  GI50: 5 µM
  IC (TGI): 15 µM
  CC50: > 100 µM
  activity at 10 µM: 64.3%
COLO 205
  GI50: 2.77 µM
  IC (TGI): 9.58 µM
  CC50: 34.6 µM
  activity at 10 µM: 18.6%
HCT-15
  GI50: 1.59 µM
  IC (TGI): 11.8 µM
  CC50: 71.5 µM
  activity at 10 µM: 18.3%
SF-295
  GI50: 2.84 µM
  IC (TGI): 11 µM
  CC50: 45.8 µM
  activity at 10 µM: 17.8%
SF-539
  GI50: 2.88 µM
  IC (TGI): 11.5 µM
  CC50: 36.6 µM
SK-MEL-2
  GI50: 2.7 µM
  IC (TGI): 7.7 µM
  CC50: 44.8 µM
UACC-62
  GI50: 0.95 µM
  activity at 10 µM: 13.4%
  CC50: 38.1 µM
  TGI: 7.97 µM
OVCAR-4
  GI50: 1.97 µM
  IC (TGI): 8.17 µM
  CC50: > 100 µM
  activity at 10 µM: 11.1%
786-0
  GI50: 3.09 µM
  IC (TGI): 25.2 µM
  CC50: > 100 µM
  activity at 10 µM: 50.4%
A498
  GI50: 3.79 µM
  IC (TGI): 18.8 µM
  CC50: > 100 µM
  activity at 10 µM: 24.5%
UO-31
  GI50: 1.9 µM
  IC (TGI): 15.8 µM
  CC50: > 100 µM
  activity at 10 µM: 19%
Full NCI 60 cell panel [1]
  activity at 10 µM: 25%
  inhibition at 10 µM: > 90%
Full NCI 60 cell panel [2]
  GI50: 0.15 to 8.41 µM
